Experimental data as given in US9034871B2, “Compounds for Alzheimer's disease” (priority 2004, dated 2015).
Where two headings read alike, the source gives them in different places.

How the values were obtained:
Aβ42 = experiment: Detection of secreted Aβ42 with Biosource ELISA kit in H4 cells expressing APP695; type: cell-based
Description: The present invention provides compositions and methods for lowering Aβ42 levels. To test whether compounds and compositions are capable of modulating Aβ levels, a sandwich enzyme-linked immunosorbent assay (ELISA) is employed to measure secreted Aβ (Aβ42 and/or Aβ40) levels. In this example, H4 cells expressing wide type APP695 are seeded at 200,000 cells/per well in 6 well plates, and incubated at 37 degree C. with 5% CO2 overnight. Cells are treated with 1.5 ml medium containing vehicle (DMSO) or a test compound at 1.25 μM, 2.5 μM, 5.0 μM and 10.0 μM (as well as other concentration if desirable) concentration for 24 hours or 48 hours. The supernatant from treated cells is collected into eppendorf tubes and frozen at −80 degree C. for future analysis.
The amyloid peptide standard is reconstituted and frozen samples are thawed. The samples and standards are diluted with appropriate diluents and the plate is washed 4 times with Working Wash Buffer and patted dry on a paper towel. 100 μL per well of peptide standards, controls, and dilutions of samples to be analyzed is added. The plate is incubated for 2 hours while shaking on an orbital plate shaker at RT. The plate is then washed 4 times with Working Wash Buffer and patted dry on a paper towel. Detection Antibody Solution is poured into a reservoir and 100 μL /well of Detection Antibody Solution is immediately added to the plate. The plate is incubated at RT for 2 hours while shaking and then washed four times with Working Wash Buffer and patted dry on a paper towel. Secondary Antibody Solution is then poured into a reservoir and 100 μL /well of Secondary Antibody Solution is immediately added to the plate. The plate is incubated at RT for 2 hours with shaking, washed 5 times with Working Wash Buffer, and patted dry on a paper towel.
100 μL of stabilized chromogen is added to each well and the liquid in the wells begins to turn blue. The plate is incubated for 30 minutes at room temperature and in the dark. 100 μL of stop solution is added to each well and the plate is tapped gently to mix resulting in a change of solution color from blue to yellow. The absorbance of each well is read at 450 nm having blanked the plate reader against a chromogen blank composed of 100 μL each of stabilized chromogen and stop solution. The plate is read within 2 hours of adding the stop solution. The absorbance of the standards is plotted against the standard concentration and the concentrations of unknown samples and controls are calculated.
These compounds were synthesized via the indicated synthetic route. Ab42 IC50 (uM) refers to IC50 value for Ab42 lowering in e.g., the assay described in Example 6.

[1] = clinical trials in AD patients; cited from earlier work
[2] = large prevention trial, patients having mild cognitive impairment; placebo 4.5%; cited from earlier work
[3] = IC50 value for Ab42 lowering in e.g. the assay described in Example 6, read-out: Ab42 IC50
[4] = cell based assay described in Example 6, read-out: Ab42 lowering IC50
[5] = Ab42 lowering, cell based assay, read-out: Ab42 IC50

Row | SMILES | IC50 (Aβ42; [3]) [µM] | IC50 (Aβ42; [5]) [µM] | also measured
1 | CC1CCc2c(cc(-c3ccccc3)n2-c2cccc(CCC(=O)O)c2)C1 (centres unmarked) [Compound 88, 3-[3-(5-methyl-2-phenyl-4,5,6,7-tetrahydroindol-1-yl)-phenyl] propionic acid] | 27 |  | 
2 | O=C(O)CCCc1ccc(-n2c(-c3ccccc3)cc3c4ccccc4ccc32)cc1 [Compound 89, 4-[4-(2-phenyl-benzo[e]indol-3-yl)-phenyl] butyric acid] | 8 |  | 
3 | O=C(O)CCc1cccc(-n2c(-c3ccccc3)cc3c2CCCC3)c1 [Compound 90, 3-[3-(2-phenyl-4,5,6,7-tetrahydroindol-1-yl)-phenyl] propionic acid] | 54 |  | 
4 | CC1CCCc2c1cc(-c1ccccc1)n2-c1cccc(C(=O)O)c1 (centres unmarked) [Compound 91, 3-(4-methyl-2-phenyl-4,5,6,7-tetrahydroindol-1-yl) benzoic acid] | 3 |  | 
5 | O=C(O)Cc1ccccc1-n1c(-c2ccccc2)cc2c1CCc1ccccc1-2 [Compound 92, [2-(2-phenyl-4,5-dihydrobenzo[e]indol-3-yl)-phenyl] acetic acid] | 27 |  | 
6 | c1ccc(-c2cc(-c3cc4c(n3-c3cccc(-c5nn[nH]n5)c3)CCc3ccccc3-4)on2)cc1 [Compound 138, 2-(3-phenylisoxazol-5-yl)-3-[3-(2H-tetrazol-5-yl)-phenyl]-4,5-dihydro-3H-benzo[e]indole] |  |  | IC50 (Aβ42; [4]): 10 µM
7 | O=C(O)c1cccc(-n2c(-c3cc(-c4ccccc4)no3)cc3c2CCc2ccccc2-3)c1 [Compound 139] |  |  | IC50 (Aβ42; [4]): 2 µM
8 | COc1ccc2cc([C@H](C)C(=O)O)ccc2c1 [Naproxen] |  |  | efficacy for treating AD [1]: failed to show efficacy
9 | c1ccc(-c2cc(-c3cc4c(n3-c3cccc(-c5nn[nH]n5)c3)CCc3ccccc3-4)on2)cc1 [drawing 1708, 2-(3-phenylisoxazol-5-yl)-3-[3-(2H-tetrazol-5-yl)-phenyl]-4,5-dihydro-3H-benzo[e]indole] |  | 9.6 | 
10 | O=C(O)c1cccc(-n2c(-c3cc(-c4ccccc4)no3)cc3c2CCc2ccccc2-3)c1 [drawing 1709] |  | 2.2 | 
11 | c1ccc(-c2cc3c(n2-c2cccc(-c4nn[nH]n4)c2)CCc2ccccc2-3)cc1 [drawing 1720, 2-phenyl-3-[3-(2H-tetrazol-5-yl)-phenyl]-4,5-dihydro-3H-benzo[e]indole] |  | 24 | 
12 | CS(=O)(=O)c1ccc(C2=C(c3ccccc3)C(=O)OC2)cc1 [rofecoxib] |  |  | patients who developed AD [2]: 6.4%; efficacy for treating AD [1]: failed to show efficacy
13 | CCC(C)(C)C1CCc2c(cc(-c3ccccc3)n2-c2nc(CC(=O)O)cs2)C1 (centres unmarked) [{2-[5-(1,1-dimethylpropyl)-2-phenyl-4,5,6,7-tetrahydroindol-1-yl]-thiazol-4-yl} acetic acid] |  | 6.5 | 
